Measured values published in the NIST ThermoML archive (doi:10.1021/je300737t).

Key:
[1] = 101 kPa, Liquid; for mass density: Pycnometric method
[2] = xn = mol fraction of the nth substance listed; conditions: 101 kPa, Liquid; for mass density: Pycnometric method

CCCCOCCO [2-butoxyethan-1-ol]
[1]
Conditions	mass density [kg/m3]	viscosity [mPa·s]
298.15 K	896.16	2.782
303.15 K	892.74	2.499
308.15 K	888.88	2.206
313.15 K	884.29	1.946

CCCCOCCO [2-butoxyethan-1-ol] + O
[2]
Conditions	mass density, 298.15 K [kg/m3]	mass density, 303.15 K [kg/m3]	mass density, 308.15 K [kg/m3]	mass density, 313.15 K [kg/m3]	viscosity, 298.15 K [mPa·s]	viscosity, 303.15 K [mPa·s]	viscosity, 308.15 K [mPa·s]	viscosity, 313.15 K [mPa·s]
x1 = 0.017	993.26	990.82	988.89	985.94	1.284	1.131	0.9936	0.8871
x1 = 0.037	986.46	982.92	980.38	977.64	1.849	1.622	1.465	1.302
x1 = 0.061	976.33	974.23	971.37	968.64	2.45	2.161	1.916	1.754
x1 = 0.092	967.1	964.31	961.45	958.48	2.998	2.635	2.334	2.054
x1 = 0.132	948.1	944.74	941.59	937.57	3.918	3.394	2.921	2.539
x1 = 1	896.16	892.74	888.88	884.29	2.782	2.499	2.206	1.946
